Reference: US12492181B2, “Gem-disubstituted piperidine melanocortin subtype-2 receptor (MC2R) antagonists and uses thereof” (Crinetics Pharmaceuticals, Inc., priority 2019, dated 2025)

Target: T1, hMC2 receptor (crude hMC2R membranes from CRE-bla-CHO-K1 cells stably expressing hMC2 receptor and hMRAP accessory protein) (Homo sapiens, UniProt Q01718)
T1 construct: crude membrane fractions
Experiment: hMC2 membrane binding assay ([125I]ACTH (1-39) Tyr23, SPA)
Details: displacement of 0.2 nM [125I]ACTH (1-39) Tyr23 from hMC2R membranes, 1.5 hours at room temperature; read-out: MC2R binding potency
How it was run: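 Ki values come from non-linear regression of SPA scintillation counts, with compounds displacing [125I]ACTH(1-39) Tyr23. Membranes come from CRE-bla-CHO-K1 cells stably expressing hMC2 receptor together with hMRAP. They are preincubated with WGA-coated PVT SPA beads in 50 mM HEPES pH 7.4 with 0.20% BSA, Mg2+, Ca2+ and protease inhibitors.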

T1 sequence (Q01718 whole entry): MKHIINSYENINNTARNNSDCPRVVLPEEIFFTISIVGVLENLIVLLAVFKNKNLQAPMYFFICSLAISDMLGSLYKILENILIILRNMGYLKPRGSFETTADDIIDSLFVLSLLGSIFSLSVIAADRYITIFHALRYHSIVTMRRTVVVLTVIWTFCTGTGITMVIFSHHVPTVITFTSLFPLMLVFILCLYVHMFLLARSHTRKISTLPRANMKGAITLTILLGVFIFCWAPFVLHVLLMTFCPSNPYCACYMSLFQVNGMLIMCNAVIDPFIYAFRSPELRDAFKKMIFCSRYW
T1 sequence (Q8TCY5 whole entry partner): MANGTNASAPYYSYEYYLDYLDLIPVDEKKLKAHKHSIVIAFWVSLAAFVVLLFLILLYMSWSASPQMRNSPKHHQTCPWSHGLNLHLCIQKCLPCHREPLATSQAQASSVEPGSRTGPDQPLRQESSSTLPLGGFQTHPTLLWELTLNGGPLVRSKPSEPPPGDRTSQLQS

| Ki [nM] | Compound |
| --- | --- |
| < 10 | CCOc1ncccc1-c1ccc(C2(NC(=O)CN(C)C)CCN(c3ccc(Cl)cc3C#N)CC2)cn1 [Compound 2-38, N-[1-(4-chloro-2-cyanophenyl)-4-{2′-ethoxy-[2,3′-bipyridin]-5-yl}piperidin-4-yl]-2-(dimethylamino)acetamide] |
| < 10 | CN(C)CCNC(=O)C1(c2cnc(-c3cccn3C)c(F)c2)CCN(c2ccc(C(F)(F)F)cc2Cl)CC1 [Compound 1-309, 1-[2-chloro-4-(trifluoromethyl)phenyl]-N-[2-(dimethylamino)ethyl]-4-[5-fluoro-6-(1-methyl-1H-pyrrol-2-yl)pyridin-3-yl]piperidine-4-carboxamide] |
| 10 to 100 | Cn1cccc1-c1ccc(C2(C(=O)N[C@H]3C[C@H](N(C)C)C3)CCN(c3ccc(C(F)(F)F)cc3C#N)CC2)cn1 [Compound 1-240, 1-[2-cyano-4-(trifluoromethyl)phenyl]-4-[6-(1-methyl-1H-pyrrol-2-yl)pyridin-3-yl]-N-[(1R,3R)-3-(dimethylamino)cyclobutyl]piperidine-4-carboxamide] |
| < 10 | CN1CC[C@@H](NC(=O)C2(c3ccc(-c4ccccc4C#N)nc3)CCN(c3ccc(C(F)(F)F)cc3C#N)CC2)C1 [Compound 1-78, 1-[2-cyano-4-(trifluoromethyl)phenyl]-4-[6-(2-cyanophenyl)pyridin-3-yl]-N-[(3R)-1-methylpyrrolidin-3-yl]piperidine-4-carboxamide] |
| < 10 | CN1CC[C@@H](NC(=O)C2(c3ccc(-c4cccc5cnn(C)c45)nc3)CCN(c3ccc(C(F)(F)F)cc3C#N)CC2)C1 [Compound 1-73, 1-[2-cyano-4-(trifluoromethyl)phenyl]-4-[6-(1-methyl-1H-indazol-7-yl)pyridin-3-yl]-N-[(3R)-1-methylpyrrolidin-3-yl]piperidine-4-carboxamide] |
| < 10 | CCCc1ccccc1-c1ccc(C2(C(=O)N[C@@H]3CCN(C)C3)CCN(c3ccc(C(F)(F)F)cc3C#N)CC2)cn1 [Compound 1-117, 1-[2-cyano-4-(trifluoromethyl)phenyl]-N-[(3R)-1-methylpyrrolidin-3-yl]-4-[6-(2-propylphenyl)pyridin-3-yl]piperidine-4-carboxamide] |
| 10 to 100 | COc1ccccc1-c1ccc(C2(NC(=O)NC3CN(C)C3)CCN(c3ccc(C(F)(F)F)cc3C#N)CC2)cn1 [Compound 2-59, 1-{1-[2-cyano-4-(trifluoromethyl)phenyl]-4-[6-(2-methoxyphenyl)pyridin-3-yl]piperidin-4-yl}-3-(1-methylazetidin-3-yl)urea] |
| < 10 | CCOc1ncccc1-c1ccc(C2(C(=O)N[C@@H]3CCNC3)CCN(c3ccc(C(F)(F)F)cc3C#N)CC2)cc1 [Compound 1-2, 1-[2-cyano-4-(trifluoromethyl)phenyl]-4-[4-(2-ethoxypyridin-3-yl)phenyl]-N-[(3R)-pyrrolidin-3-yl]piperidine-4-carboxamide] |
| < 10 | COc1ccccc1-c1ccc(C2(C(=O)NC[C@@H]3COCCN3C)CCN(c3ccc(C(F)(F)F)cc3C#N)CC2)cn1 [Compound 1-329, 1-[2-cyano-4-(trifluoromethyl)phenyl]-4-[6-(2-methoxyphenyl)pyridin-3-yl]-N-{[(3R)-4-methylmorpholin-3-yl]methyl}piperidine-4-carboxamide] |
| < 10 | COc1ccccc1-c1ccc(C2(C(=O)NC[C@@H]3C[C@@H](F)CN3C)CCN(c3ccc(C(F)(F)F)cc3C#N)CC2)cn1 [Compound 1-250, 1-[2-cyano-4-(trifluoromethyl)phenyl]-N-{[(2S,4R)-4-fluoro-1-methylpyrrolidin-2-yl]methyl}-4-[6-(2-methoxyphenyl)pyridin-3-yl]piperidine-4-carboxamide] |
| < 10 | CCOc1ncccc1-c1ccc(C2(C(=O)NC3CN(C)C3)CCN(c3ccc(C(F)(F)F)cc3C#N)CC2)cn1 [Compound 1-19, 1-[2-cyano-4-(trifluoromethyl)phenyl]-4-{2′-ethoxy-[2,3′-bipyridin]-5-yl}-N-(1-methylazetidin-3-yl)piperidine-4-carboxamide] |
| < 10 | CCOc1ncccc1-c1ccc(C2(C(=O)N[C@@H]3CCN(C)C3)CCN(c3ccc(C(F)(F)F)cc3C#N)CC2)cc1F [Compound 1-75, 1-[2-cyano-4-(trifluoromethyl)phenyl]-4-[4-(2-ethoxypyridin-3-yl)-3-fluorophenyl]-N-[(3R)-1-methylpyrrolidin-3-yl]piperidine-4-carboxamide] |
| < 10 | COc1ccccc1-c1ncc(C2(C(=O)NCCN(C)C)CCN(c3ccc(C(F)(F)F)cc3C#N)CC2)cc1F [Compound 1-198, 1-[2-cyano-4-(trifluoromethyl)phenyl]-N-[2-(dimethylamino)ethyl]-4-[5-fluoro-6-(2-methoxyphenyl)pyridin-3-yl]piperidine-4-carboxamide] |
| < 10 | CCOc1ncccc1-c1ncc(C2(C(=O)N[C@@H](C)CNC)CCN(c3ccc(C(F)(F)F)cc3C#N)CC2)cc1F [Compound 1-320, 1-[2-cyano-4-(trifluoromethyl)phenyl]-4-{2′-ethoxy-3-fluoro-[2,3′-bipyridin]-5-yl}-N-[(2S)-1-(methylamino)propan-2-yl]piperidine-4-carboxamide] |
| < 10 | COc1ccccc1-c1ccc(C2(C(=O)N[C@@H]3CN(C)C[C@@H]3F)CCN(c3ccc(C(F)(F)F)cc3C#N)CC2)cn1 [Compound 1-242, 1-[2-cyano-4-(trifluoromethyl)phenyl]-N-[(3R,4S)-4-fluoro-1-methylpyrrolidin-3-yl]-4-[6-(2-methoxyphenyl)pyridin-3-yl]piperidine-4-carboxamide] |
| < 10 | CCOc1ccccc1-c1ccc(C2(C(=O)NC3CN(C)C3)CCN(c3ccc(Cl)cc3C#N)CC2)cn1 [Compound 1-93, 1-(4-chloro-2-cyanophenyl)-4-[6-(2-ethoxyphenyl)pyridin-3-yl]-N-(1-methylazetidin-3-yl)piperidine-4-carboxamide] |
| < 10 | CCOc1ccccc1-c1ccc(C2(C(=O)N[C@H]3CCN(C)C3)CCN(c3ccc(C(F)(F)F)cc3Cl)CC2)nn1 [Compound 1-175, 1-[2-chloro-4-(trifluoromethyl)phenyl]-4-[6-(2-ethoxyphenyl)pyridazin-3-yl]-N-[(3S)-1-methylpyrrolidin-3-yl]piperidine-4-carboxamide] |
| < 10 | CCOc1ncccc1-c1ncc(C2(C(=O)NCCN(C)C)CCN(c3ccc(C(F)(F)F)cc3Cl)CC2)cc1F [Compound 1-288, 1-[2-chloro-4-(trifluoromethyl)phenyl]-N-[2-(dimethylamino)ethyl]-4-{2′-ethoxy-3-fluoro-[2,3′-bipyridin]-5-yl}piperidine-4-carboxamide] |
| < 10 | CN1CC[C@H](C(=O)NC2(c3ccc(-c4cccn4C)nc3)CCN(c3ccc(C(F)(F)F)cc3C#N)CC2)C1 [Compound 2-46, (3S)—N-{1-[2-cyano-4-(trifluoromethyl)phenyl]-4-[6-(1-methyl-1H-pyrrol-2-yl)pyridin-3-yl]piperidin-4-yl}-1-methylpyrrolidine-3-carboxamide] |

| Compound | Ki [nM] |
| --- | --- |
| CN1[C@@H]2CC[C@H]1[C@@H](NC(=O)C1(c3ccc(-c4cccn4C)nc3)CCN(c3ccc(C(F)(F)F)cc3C#N)CC1)C2 (racemic) [Compound 1-251, rac-1-[2-cyano-4-(trifluoromethyl)phenyl]-4-[6-(1-methyl-1H-pyrrol-2-yl)pyridin-3-yl]-N-[(1S,2S,4R)-7-methyl-7-azabicyclo[2.2.1]heptan-2-yl]piperidine-4-carboxamide] | 10 to 100 |
